# Like-named read-outs stand apart in the source and are kept apart here.
# Assays:
# [1] = test system: Dengue virus type 2 (DENV-2); test: microbe, parasite or virus in culture; type: cell-based; conditions: read-out: DENV-2 EC50
# Yellow Fever (YFV) = test: microbe, parasite or virus in culture; type: cell-based, Yellow Fever virus; conditions: read-out: YFV EC50
# [2] = Yellow fever virus, BHK-21, 144 h
SMILES,"EC50 ([1]; Dengue virus, DENV2, 144 h)",EC50 (Yellow Fever (YFV); [2]),EC50 [1],EC50 (Yellow Fever (YFV))
"C#C[C@@]1(F)[C@H](O)[C@@H](COP(=O)(N[C@@H](C)C(=O)OC(C)C)Oc2ccccc2)O[C@H]1n1cnc2c(N(C)C)nc(N)nc21 (mixture of isomers) [Compound 2, (2S)-Isopropyl 2-(((((2R,3R,4R,5R)-5-(2-amino-6-(dimethylamino)-9H-purin-9-yl)-4-ethynyl-4-fluoro-3-hydroxytetrahydrofuran-2-yl)methoxy)(phenoxy)phosphoryl)amino) propanoate]",72.5 µM,12.6 µM,–,–
"C#C[C@@]1(F)[C@H](O)[C@@H](COP(=O)(N[C@@H](C)C(=O)OC(C)C)Oc2ccccc2)O[C@H]1n1cnc2c(NC)nc(N)nc21 (stereo partly drawn) [Compound 4, (2S)-Isopropyl 2-(((((2R,3R,4R,5R)-5-(2-amino-6-(methylamino)-9H-purin-9-yl)-4-ethynyl-4-fluoro-3-hydroxytetrahydrofuran-2-yl)methoxy)phenoxy)phosphoryl)-amino) Propanoate]",–,–,612 µM,7 µM
"C#C[C@@]1(F)[C@H](O)[C@@H](COP(=O)(N[C@@H](C)C(=O)OC(C)C)Oc2ccccc2)O[C@H]1n1cnc2c(NC3CC3)nc(N)nc21 (stereo partly drawn) [Compound 6, (2S)-Isopropyl 2-(((((2R,3R,4R,5R)-5-(2-amino-6-(cyclopropylamino)-9H-purin-9-yl)-4-ethynyl-4-fluoro-3-hydroxytetrahydrofuran-2-yl)methoxy)phenoxy)phosphoryl)amino) propanoate]",–,–,42 µM,–
"CC(C)OC(=O)[C@H](C)N[P@](=O)(OC[C@H]1C(C)[C@@H](n2cnc3c(N)ncnc32)[C@H](O)[C@@H]1O)Oc1ccccc1 (stereo partly drawn) [Compound 204, (2S)-Isopropyl 2-(((S)-(((1R,3R,4S,5R)-3-(6-amino-9H-purin-9-yl)-4,5-dihydroxy-2-methylcyclopentyl)methoxy)(phenoxy)phosphoryl)amino)propanoate]",> 2.1 µM,> 2.1 µM,–,–
"CNc1nc(N)nc2c1ncn2[C@@H]1O[C@H](CO[P@@](=O)(N[C@@H](C)C(=O)OC(C)C)Oc2ccccc2)[C@@H](O)[C@@]1(C)F [Compound 205, isopropyl ((((R,S)-(2R,3R,4R,5R)-5-(2-amino-6-(methylamino)-9H-purin-9-yl)-4-fluoro-3-hydroxy-4-methyltetrahydrofuran-2-yl)methoxy)-phenoxy-phosphoryl)-L-alaninate]",0.8 µM,1.2 µM,–,–
CC1[C@@H](n2cnc3c(N)ncnc32)[C@H](O)[C@H](O)[C@H]1CO (some centres unmarked) [Compound 206],1.83 µM,2.3 µM,–,–
